≈ marks a conversion by molar mass, not a printed value.

Experimental findings from ChEMBL document CHEMBL1255266, “Mechanisms of resistance to daptomycin in Enterococcus faecium” (2008) are described below.

Assay [1] deals with Enterococcus faecium. Nature of the assay: Antimicrobial activity against Enterococcus faecium isolate 2 from skin lesion of patient by Etest. Type of assay: functional.
The subject of assay [2] is Enterococcus faecium. Nature of the assay: Antimicrobial activity against Enterococcus faecium isolate 4 from lower extremity wound of patient by Etest. Type of assay: functional.
In assay [3] the test system is Enterococcus faecium. Briefly: Antimicrobial activity against Enterococcus faecium ATCC 35667 by Etest. Type of assay: functional.
Assay [4] concerns Enterococcus faecium. Nature of the assay: Antimicrobial activity against Enterococcus faecium isolate 8 from right abdominal wound of patient by Etest.
The subject of a further assay is Staphylococcus aureus. Briefly: microbe, parasite or virus in culture. The note with it: ATCC 29213.
Assay [5] deals with Enterococcus faecium. Briefly: Antimicrobial activity against Enterococcus faecium isolate 5 from patient blood by Etest. Type of assay: functional.
Assay [6] has as its system Enterococcus faecium. Nature of the assay: Antimicrobial activity against Enterococcus faecium isolate 6 from thigh wound of patient by Etest. The assay is classed as functional. The following applies: isolate 6, Thigh muscle.
In assay [7] the test system is Enterococcus faecium. Nature of the assay: Antimicrobial activity against Enterococcus faecium isolate 1 from right groin wound of patient by Etest. The assay is classed as functional.
The test system of assay [8] is Enterococcus faecium. Nature of the assay: Antimicrobial activity against Enterococcus faecium isolate 7 from abdominal wound of patient by Etest.
In assay [9] the test system is Enterococcus faecium. Nature of the assay: Antimicrobial activity against Enterococcus faecium isolate 3 from abdominal wound of patient by Etest. The assay is classed as functional.

Description for Staphylococcus aureus: Antimicrobial activity against Staphylococcus aureus ATCC 29213 by Etest

As for `CCCCCCCCCC(=O)N[C@@H](Cc1c[nH]c2ccccc12)C(=O)N[C@H](CC(N)=O)C(=O)N[C@@H](CC(=O)O)C(=O)N[C@@H]1C(=O)NCC(=O)N[C@@H](CCCN)C(=O)N[C@@H](CC(=O)O)C(=O)N[C@H](C)C(=O)N[C@@H](CC(=O)O)C(=O)NCC(=O)N[C@H](CO)C(=O)N[C@@H]([C@H](C)CC(=O)O)C(=O)N[C@@H](CC(=O)c2ccccc2N)C(=O)O[C@@H]1C`, the MIC in the assay with Enterococcus faecium [1] is 4 µg/mL (≈ 2.47 µM); against Enterococcus faecium [2] it was 16 µg/mL (≈ 9.87 µM); in the assay on Enterococcus faecium [3], 1 µg/mL (≈ 0.617 µM); in the assay with Enterococcus faecium [4], 16 µg/mL (≈ 9.87 µM); in the assay on Staphylococcus aureus, 0.25 µg/mL (≈ 0.154 µM); against Enterococcus faecium [5] it was 8 µg/mL (≈ 4.94 µM). In addition, the MIC with Enterococcus faecium [6] was 16 µg/mL (≈ 9.87 µM); in the assay on Enterococcus faecium [7], 4 µg/mL (≈ 2.47 µM); against Enterococcus faecium [8] it was more than 16 µg/mL; in the assay with Enterococcus faecium [9] it was 16 µg/mL (≈ 9.87 µM).
As for `CN[C@H](CC(C)C)C(=O)N[C@H]1C(=O)N[C@@H](CC(N)=O)C(=O)N[C@H]2C(=O)N[C@H]3C(=O)N[C@H](C(=O)N[C@H](C(=O)O)c4cc(O)cc(O)c4-c4cc3ccc4O)[C@H](O)c3ccc(c(Cl)c3)Oc3cc2cc(c3O[C@@H]2O[C@H](CO)[C@@H](O)[C@H](O)[C@H]2O[C@H]2C[C@](C)(N)[C@H](O)[C@H](C)O2)Oc2ccc(cc2Cl)[C@H]1O` [VANCOMYCIN], the MIC was less than 2 µg/mL against Enterococcus faecium [1]; more than 16 µg/mL against Enterococcus faecium [2]; more than 16 µg/mL against Enterococcus faecium [4]; more than 16 µg/mL against Enterococcus faecium [5]; more than 16 µg/mL against Enterococcus faecium [6]; less than 2 µg/mL in the assay on Enterococcus faecium [7]. Besides, the values for the MIC in the assay on Enterococcus faecium [8] and with Enterococcus faecium [9] were more than 16 µg/mL and less than 2 µg/mL, respectively.
